Values of other authors, collected in patent publication US7510874B2, “Stable cell lines expressing HERG1a and HERG1b” (priority 2003, dated 2009).

Target: IKr currents (Homo sapiens, UniProt Q12809)
Settings: background statement with literature references

Chain of IKr currents (Q12809 whole entry): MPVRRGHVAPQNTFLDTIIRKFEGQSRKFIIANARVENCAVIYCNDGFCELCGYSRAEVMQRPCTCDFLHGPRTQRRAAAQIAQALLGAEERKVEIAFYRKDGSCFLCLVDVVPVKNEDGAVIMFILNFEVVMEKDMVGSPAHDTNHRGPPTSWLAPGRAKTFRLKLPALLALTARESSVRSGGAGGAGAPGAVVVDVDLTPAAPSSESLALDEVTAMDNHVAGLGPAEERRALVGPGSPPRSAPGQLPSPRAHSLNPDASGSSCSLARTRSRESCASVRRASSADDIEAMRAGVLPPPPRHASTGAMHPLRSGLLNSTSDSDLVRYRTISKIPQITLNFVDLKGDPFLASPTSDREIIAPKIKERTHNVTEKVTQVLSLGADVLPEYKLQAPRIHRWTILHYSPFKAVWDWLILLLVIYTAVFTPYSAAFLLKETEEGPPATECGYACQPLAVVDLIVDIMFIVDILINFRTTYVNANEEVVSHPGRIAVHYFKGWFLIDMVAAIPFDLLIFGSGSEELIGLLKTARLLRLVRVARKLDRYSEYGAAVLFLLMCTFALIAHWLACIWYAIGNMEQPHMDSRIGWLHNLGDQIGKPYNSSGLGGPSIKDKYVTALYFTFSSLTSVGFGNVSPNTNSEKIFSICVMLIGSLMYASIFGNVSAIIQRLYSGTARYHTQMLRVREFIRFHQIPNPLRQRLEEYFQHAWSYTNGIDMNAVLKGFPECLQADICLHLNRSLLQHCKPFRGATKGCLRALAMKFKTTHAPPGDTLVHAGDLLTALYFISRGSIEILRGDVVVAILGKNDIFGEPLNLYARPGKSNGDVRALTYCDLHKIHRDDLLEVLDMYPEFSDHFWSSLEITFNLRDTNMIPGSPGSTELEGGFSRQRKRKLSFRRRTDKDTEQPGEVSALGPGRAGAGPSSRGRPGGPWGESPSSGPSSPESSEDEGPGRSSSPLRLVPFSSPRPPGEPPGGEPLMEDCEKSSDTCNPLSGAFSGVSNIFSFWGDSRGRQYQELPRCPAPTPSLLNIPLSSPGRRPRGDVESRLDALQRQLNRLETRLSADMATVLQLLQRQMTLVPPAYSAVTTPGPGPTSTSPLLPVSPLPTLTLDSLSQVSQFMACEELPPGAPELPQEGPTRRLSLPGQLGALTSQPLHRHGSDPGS

For `COc1cc(N)c(Cl)cc1C(=O)NC1CCN(CCCOc2ccc(F)cc2)CC1OC` (stereo not shown) [cisapride], the “block of IKr currents (cause of acquired LQTS)” value is given as “block of IKr currents”.
